Measured values published in US8969565B2, “Imidazo[1,2-b]pyridazine-based compounds, compositions comprising them, and methods of their use” (Lexicon Pharmaceuticals, Inc., priority 2012, dated 2015).

Target: T1, AAK1 (Homo sapiens, UniProt Q2M2I8)
T1 construct: HA; expressed in transfected cells; host or cells: HEK293F
Assay: HEK281 cell-based assay (phospho-mu2 Western blot in transfected HEK293F cells)
Conditions: 3 hours incubation, read-out: CBA IC50
In short: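 After 3 hours at 37° C. with compound (five 3-fold-spaced concentrations, DMEM+0.5% FBS), transiently transfected HEK293F cells expressing full-length human AAK1 and Flag-tagged mu2 were lysed. mu2 phosphorylation was read by anti-phospho-mu2 immunoblot, normalized against total mu2 by anti-Flag blot.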

T1 sequence (Q2M2I8 1-863 isoform Q2M2I8-2): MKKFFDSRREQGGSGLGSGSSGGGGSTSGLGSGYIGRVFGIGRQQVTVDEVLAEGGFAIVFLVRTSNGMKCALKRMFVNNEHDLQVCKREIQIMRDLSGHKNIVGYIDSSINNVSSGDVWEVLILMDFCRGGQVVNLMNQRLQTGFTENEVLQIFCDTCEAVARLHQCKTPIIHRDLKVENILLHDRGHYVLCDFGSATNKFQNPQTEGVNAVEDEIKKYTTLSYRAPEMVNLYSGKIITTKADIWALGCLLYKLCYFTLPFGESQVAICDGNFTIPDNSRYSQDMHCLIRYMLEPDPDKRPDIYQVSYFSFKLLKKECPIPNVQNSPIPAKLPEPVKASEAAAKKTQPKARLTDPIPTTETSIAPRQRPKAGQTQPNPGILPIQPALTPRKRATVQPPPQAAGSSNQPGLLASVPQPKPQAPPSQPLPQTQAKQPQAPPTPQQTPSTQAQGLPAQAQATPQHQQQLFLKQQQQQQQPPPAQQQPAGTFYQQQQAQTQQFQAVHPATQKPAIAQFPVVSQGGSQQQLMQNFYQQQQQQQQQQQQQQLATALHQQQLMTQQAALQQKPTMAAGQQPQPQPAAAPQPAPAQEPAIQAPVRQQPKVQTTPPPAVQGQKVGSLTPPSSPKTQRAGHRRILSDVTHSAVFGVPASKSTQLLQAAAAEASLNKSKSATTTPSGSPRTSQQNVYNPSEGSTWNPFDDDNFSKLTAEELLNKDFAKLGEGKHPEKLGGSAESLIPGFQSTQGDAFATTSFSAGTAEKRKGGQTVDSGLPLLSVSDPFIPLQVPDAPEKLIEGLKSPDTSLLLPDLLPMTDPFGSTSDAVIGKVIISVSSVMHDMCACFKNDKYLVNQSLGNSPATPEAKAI

Row | Structure (SMILES) | IC50 [nM]
1 | COc1ccccc1-c1cnc2ccc(NC[C@@H]3CCCN3C(=O)OC(C)C)nn12 [(S)-isopropyl 2-(((3-(2-methoxyphenyl)imidazo[1,2-b]pyridazin-6-yl)amino)methyl)pyrrolidine-1-carboxylate] | ≤ 10
2 | COc1cnccc1-c1cnc2ccc(NC[C@@H]3CCCN3C(=O)OC(C)C)nn12 [(S)-isopropyl 2-(((3-(3-methoxypyridin-4-yl)imidazo[1,2-b]pyridazin-6-yl)amino)methyl)pyrrolidine-1-carboxylate] | ≤ 10
3 | CC(C)OC(=O)N1CCC[C@H]1CNc1ccc2ncc(-c3ccc(CN)cc3)n2n1 [(S)-isopropyl 2-(((3-(4-(aminomethyl)phenyl)imidazo[1,2-b]pyridazin-6-yl)amino)methyl)pyrrolidine-1-carboxylate] | ≤ 10
4 | C=C(C)c1cnc2ccc(NC[C@@H]3CCCN3C(=O)OC(C)C)nn12 [(S)-isopropyl 2-(((3-(prop-1-en-2-yl)imidazo[1,2-b]pyridazin-6-yl)amino)methyl)pyrrolidine-1-carboxylate] | ≤ 100
5 | CC(C)OC(=O)N1CCC[C@H]1CNc1ccc2ncc(Br)n2n1 [(S)-isopropyl 2-(((3-bromoimidazo[1,2-b]pyridazin-6-yl)amino)methyl)pyrrolidine-1-carboxylate] | ≤ 1000
6 | CC(C)OC(=O)N1CCC[C@H]1CNc1ccc2ncc(C3CC3)n2n1 [(S)-isopropyl 2-(((3-cyclopropylimidazo[1,2-b]pyridazin-6-yl)amino)methyl)pyrrolidine-1-carboxylate] | ≤ 1000
7 | C=Cc1cnc2ccc(NC[C@@H]3CCCN3C(=O)OC(C)C)nn12 [(S)-isopropyl 2-(((3-vinylimidazo[1,2-b]pyridazin-6-yl)amino)methyl)pyrrolidine-1-carboxylate] | ≤ 10
8 | CC(C)OC(=O)N(C)CCNc1ccc2ncc(-c3ccc([C@@H]4CCCN4)cc3)n2n1 [(S)-isopropyl methyl(2-((3-(4-(pyrrolidin-2-yl)phenyl)imidazo[1,2-b]pyridazin-6-yl)amino)ethyl)carbamate] | ≤ 100
9 | COC(=O)N1CCC[C@H]1CNc1ccc2ncc(-c3ccccc3OC)n2n1 [(S)-methyl 2-(((3-(2-methoxyphenyl)imidazo[1,2-b]pyridazin-6-yl)amino)methyl)pyrrolidine-1-carboxylate] | ≤ 100
10 | COC(=O)N1CCC[C@H]1CNc1ccc2ncc(-c3ccncc3OC)n2n1 [(S)-methyl 2-(((3-(3-methoxypyridin-4-yl)imidazo[1,2-b]pyridazin-6-yl)amino)methyl)pyrrolidine-1-carboxylate] | ≤ 100
11 | COC(=O)N1CCC[C@H]1CNc1ccc2ncc(-c3ccc(CN)cc3)n2n1 [(S)-methyl 2-(((3-(4-(aminomethyl)phenyl)imidazo[1,2-b]pyridazin-6-yl)amino)methyl)pyrrolidine-1-carboxylate] | ≤ 100
12 | COC(=O)N1CCC[C@H]1CNc1ccc2ncc(Br)n2n1 [(S)-methyl 2-(((3-bromoimidazo[1,2-b]pyridazin-6-yl)amino)methyl)pyrrolidine-1-carboxylate] | ≤ 1000
13 | CC(C)(C)COC(=O)N1CCC[C@H]1CNc1ccc2ncc(Br)n2n1 [(S)-neopentyl 2-(((3-bromoimidazo[1,2-b]pyridazin-6-yl)amino)methyl)pyrrolidine-1-carboxylate] | ≤ 100
14 | COc1ccccc1-c1cnc2ccc(NC[C@@H]3CCCN3C(=O)OC(C)(C)C)nn12 [(S)-tert-butyl 2-(((3-(2-methoxyphenyl)imidazo[1,2-b]pyridazin-6-yl)amino)methyl)pyrrolidine-1-carboxylate] | ≤ 10
15 | COc1cnccc1-c1cnc2ccc(NC[C@@H]3CCCCN3C(=O)OC(C)(C)C)nn12 [(S)-tert-butyl 2-(((3-(3-methoxypyridin-4-yl)imidazo[1,2-b]pyridazin-6-yl)amino)methyl)piperidine-1-carboxylate] | ≤ 100
16 | CC(C)(C)OC(=O)N1CCCC[C@H]1CNc1ccc2ncc(-c3ccc(CN)cc3)n2n1 [(S)-tert-butyl 2-(((3-(4-(aminomethyl)phenyl)imidazo[1,2-b]pyridazin-6-yl)amino)methyl)piperidine-1-carboxylate] | ≤ 10
17 | CC(C)(C)OC(=O)N1CCCC[C@H]1CNc1ccc2ncc(-c3ccncc3)n2n1 [(S)-tert-butyl 2-(((3-(pyridin-4-yl)imidazo[1,2-b]pyridazin-6-yl)amino)methyl)piperidine-1-carboxylate] | ≤ 100
18 | CC(C)(C)OC(=O)N1CCC[C@H]1CNc1ccc2ncc(C(F)(F)F)n2n1 [(S)-tert-butyl 2-(((3-(trifluoromethyl)imidazo[1,2-b]pyridazin-6-yl)amino)methyl)pyrrolidine-1-carboxylate] | ≤ 100
19 | CC(C)(C)OC(=O)N1CCC[C@H]1CNc1ccc2ncc(Br)n2n1 [(S)-tert-butyl 2-(((3-bromoimidazo[1,2-b]pyridazin-6-yl)amino)methyl)pyrrolidine-1-carboxylate] | ≤ 100
20 | CC(C)(C)OC(=O)N1CCC[C@H]1CNc1ccc2ncc(Cl)n2n1 [(S)-tert-butyl 2-(((3-chloroimidazo[1,2-b]pyridazin-6-yl)amino)methyl)pyrrolidine-1-carboxylate] | ≤ 100
21 | CCc1cnc2ccc(NC[C@@H]3CCCN3C(=O)OC(C)(C)C)nn12 [(S)-tert-butyl 2-(((3-ethylimidazo[1,2-b]pyridazin-6-yl)amino)methyl)pyrrolidine-1-carboxylate] | ≤ 100

Row | Structure (SMILES) | IC50 [nM]
22 | CC(C)(C)OC(=O)N1CCC[C@H]1CNc1ccc2ncc(I)n2n1 [(S)-tert-butyl 2-(((3-iodoimidazo[1,2-b]pyridazin-6-yl)amino)methyl)pyrrolidine-1-carboxylate] | ≤ 10
23 | COc1cnccc1-c1cnc2ccc(NC[C@@H]3CCN(C(=O)OC(C)(C)C)C3)nn12 [(S)-tert-butyl 3-(((3-(3-methoxypyridin-4-yl)imidazo[1,2-b]pyridazin-6-yl)amino)methyl)pyrrolidine-1-carboxylate] | ≤ 1000
24 | CC(C)(C)OC(=O)N1CC[C@@H](CNc2ccc3ncc(-c4ccc(CN)cc4)n3n2)C1 [(S)-tert-butyl 3-(((3-(4-(aminomethyl)phenyl)imidazo[1,2-b]pyridazin-6-yl)amino)methyl)pyrrolidine-1-carboxylate] | ≤ 100
25 | CC(C)(C)OC(=O)N1CC[C@@H](CNc2ccc3ncc(Br)n3n2)C1 [(S)-tert-butyl 3-(((3-bromoimidazo[1,2-b]pyridazin-6-yl)amino)methyl)pyrrolidine-1-carboxylate] | ≤ 1000
26 | CCCCNc1ccc2ncc(-c3ccc4cnccc4c3)n2n1 [Butyl-(3-isoquinolin-6-yl-imidazo[1,2-b]pyridazin-6-yl)amine] | ≤ 100
27 | CCOC(=O)CCCNc1ccc2ncc(-c3ccc(C(C)=O)s3)n2n1 [Ethyl 4-((3-(5-acetylthiophen-2-yl)imidazo[1,2-b]pyridazin-6-yl)amino)butanoate] | ≤ 100
28 | CN(CCNc1ccc2ncc(-c3ccc(CN)cc3)n2n1)c1ccccc1 [N1-(3-(4-(aminomethyl)phenyl)imidazo[1,2-b]pyridazin-6-yl)-N2-methyl-N2-phenylethane-1,2-diamine] | ≤ 100
29 | CN(CCCNc1ccc2ncc(-c3ccc(CN)cc3)n2n1)c1ccccc1 [N1-(3-(4-(aminomethyl)phenyl)imidazo[1,2-b]pyridazin-6-yl)-N3-methyl-N3-phenylpropane-1,3-diamine] | ≤ 100
30 | CN(CCCNc1ccc2ncc(-c3ccc(CN)s3)n2n1)c1ccccc1 [N1-(3-(5-(aminomethyl)thiophen-2-yl)imidazo[1,2-b]pyridazin-6-yl)-N3-methyl-N3-phenylpropane-1,3-diamine] | ≤ 1000
31 | CC(C)(C)CCNc1ccc2ncc(-c3ccc(CNCCN)cc3)n2n1 [N1-(4-(6-((3,3-dimethylbutyl)amino)imidazo[1,2-b]pyridazin-3-yl)benzyl)ethane-1,2-diamine] | ≤ 1000
32 | CCCCNc1ccc2ncc(-c3ccc(CNCCN)cc3)n2n1 [N1-(4-(6-(butylamino)imidazo[1,2-b]pyridazin-3-yl)benzyl)ethane-1,2-diamine] | ≤ 1000
33 | CCCCNc1ccc2ncc(-c3ccc(CNCCCN)cc3)n2n1 [N1-(4-(6-(butylamino)imidazo[1,2-b]pyridazin-3-yl)benzyl)propane-1,3-diamine] | ≤ 1000
34 | CN(CCNc1ccc2ncc(-c3ccc(C#N)cc3)n2n1)C(=O)CC(C)(C)C [N-(2-((3-(4-cyanophenyl)imidazo[1,2-b]pyridazin-6-yl)amino)ethyl)-N,3,3-trimethylbutanamide] | ≤ 100
35 | CN(CCNc1ccc2ncc(-c3ccc(C#N)cc3)n2n1)C(=O)C(C)(C)C [N-(2-((3-(4-cyanophenyl)imidazo[1,2-b]pyridazin-6-yl)amino)ethyl)-N-methylpivalamide] | ≤ 100
36 | COc1ncccc1-c1cnc2ccc(NCCOC3CCCC3)nn12 [N-(2-(cyclopentyloxy)ethyl)-3-(2-methoxypyridin-3-yl)imidazo[1,2-b]pyridazin-6-amine] | ≤ 100
37 | Fc1cnccc1-c1cnc2ccc(NCCOC3CCCC3)nn12 [N-(2-(cyclopentyloxy)ethyl)-3-(3-fluoropyridin-4-yl)imidazo[1,2-b]pyridazin-6-amine] | ≤ 100
38 | COc1cnccc1-c1cnc2ccc(NCCOC3CCCC3)nn12 [N-(2-(cyclopentyloxy)ethyl)-3-(3-methoxypyridin-4-yl)imidazo[1,2-b]pyridazin-6-amine] | ≤ 1000
39 | c1cc(C2CCCN2)ccc1-c1cnc2ccc(NCCOC3CCCC3)nn12 (centres unmarked) [N-(2-(cyclopentyloxy)ethyl)-3-(4-(pyrrolidin-2-yl)phenyl)imidazo[1,2-b]pyridazin-6-amine] | ≤ 100
40 | CCN(CC)CCNC(=O)c1ccc(-c2cnc3ccc(NCCOCC(C)C)nn23)cc1 [N-(2-(diethylamino)ethyl)-4-(6-((2-isobutoxyethyl)amino)imidazo[1,2-b]pyridazin-3-yl)benzamide] | ≤ 100
41 | CCN(CC)CCNC(=O)c1ccc(-c2cnc3ccc(NCCOC(C)C)nn23)cc1 [N-(2-(diethylamino)ethyl)-4-(6-((2-isopropoxyethyl)amino)imidazo[1,2-b]pyridazin-3-yl)benzamide] | ≤ 100
